This note sets out measurements from ChEMBL document CHEMBL5365457, “Selective HDAC3 Inhibitors with Potent In Vivo Antitumor Efficacy against Triple-Negative Breast Cancer” (J Med Chem, 2023).

Each structure is given as a SMILES string. Active and inactive are the calls of the source. No cut-off for these calls is given here.

For one data set, the system named is 4T1. The data set can be described thus: Antitumor activity against mouse 4T1 cells implanted in BALB/c mouse assessed as reduction in tumor volume at 50 to 100 mg/kg, ip administered 5 times a week for 21 days. Conditions: dose 50-100 mg/kg, time 21.0 day. The data set is classed as functional, organism-based.
Data set [1] is described as follows: Toxicity in BALB/c mouse implanted with mouse 4T1 cells assessed as effect on cell size in kidney at 5 to 15 mg/kg, ip measured after 21 days by H and E staining based assay. The class given is organism-based. To be noted: in vivo, 504 h, dose 5-15 mg/kg, time 21 day.

As to `CCCNNC(=O)c1cnc(NCc2ccc(OC)cc2)cn1`, the outcome in the data set with 4T1 was Active. Besides, the Activity entry in data set [1] is “Non-Toxic”.
